From patent publication US20160113931A1, “Method of treating and/or preventing neurodegenerative diseases” (University of Macau, priority 2014, published 2016)

Experiments:
SH-SY5Y cells = experiment: MPP+-induced cytotoxicity in SH-SY5Y cells (MTT assay); type: cell-based, human; conditions: 30 μM, 2 h pre-treatment, 1 mM MPP+ 24 h
Experimental: Cells were pre-treated with BHDPC (3, 10 and 30 μM) for 2 h and then incubated with or without 1 mM MPP^+ for further 24 h. Cell viability was measured by the MTT assay.
The human neuroblastoma SH-SY5Y cells were purchased from America Tissue Type Collection. The cells were maintained in DMEM medium supplemented with 10% fetal bovine serum and penicillin/streptomycin (100 U/mL; 100 μg/mL) in a 37° C., 5% CO2 incubator. All experiments were carried out 48 hours after the cells were seeded.
(§1) The percentage of surviving cells was estimated by determining the activity of mitochondrial dehydrogenases with 3(4,5-dimethylthiazol-2-yl)-2,5-diphenyltetrazolium bromide (MTT) assay. After drug treatment, cells were incubated at 37° C. for 4 h in 0.5 mg/mL MTT solution. The medium was then removed, and 100 μL of DMSO was added to each well to dissolve the violet formazan crystals. The absorbance of the samples was measured at a wavelength of 570 nm with 655 nm as a reference wavelength. All values were normalized to the control groups.
To test the neuroprotective effects of BHDPC, SH-SY5Y cells were pre-treated with gradually increasing concentrations of BHDPC for 2 h and then treated with 1 mM MPP^+ for 24 hours. Cell viability was measured using the MTT assay.

[1] = OPC proliferation (MTT assay); type: cell-based, rat; conditions: rat, primary oligodendroglial progenitor cells (OPCs), 100 μM, read-out: OPC viability compared with the control group (cytotoxicity)
Experimental: (§2) FIGS. 10A, 10B and 10C show the effects of BHDPC in oligodendroglial progenitor cells (OPCs) proliferation. OPCs were incubated with the drugs at indicated concentrations in proliferation medium for 2 days. (FIG. 10A) The cell viability was measured by MTT assay.
as §1
(§3) Purified OPC cultures were prepared as described. In brief, primary rat mixed glial cell cultures were isolated from whole brains of postnatal day (P) 2 rats, dissociated into single cells, and cultured into poly-D-lysine (PDL) coated T75 tissue culture flasks. Plating medium consisted of Dulbecco's modified Eagle's medium (DMEM, Invitrogen, Carlsbad, Calif.) supplemented with 10% fetal bovine serum (FBS; Invitrogen, Carlsbad, Calif.), […]. Tissue cultures were maintained at 37° C. in a humidified 5% CO2 incubator, and medium was exchanged every 3 days. Once confluent (after 10-15 days), microglia were separated by mechanical shaking of flasks on a rotary shaker for […] at 250 rpm and removed. After addition of fresh medium, the remaining cells were allowed to recover overnight before repeating the mechanical shaking for an additional 16 h at 200 rpm to isolate OPCs. To ensure purity of OPC cultures, the isolated cells were transferred to a tissue culture dish, from which the loosely attached OPCs were detached by gentle shaking after 60 min, leaving behind attached microglia and astrocytes. OPCs were plated onto PDL coated 96 well plates using an automated dispenser and allowed to adhere to the plates over the next 1-2 days.
(§4) To test the effect of BHDPC on primary OPC culture, OPCs were treated with BHDPC for 48 h and the cell viability was determined using MTT assay. […] The proliferation activity of BHDPC was also confirmed by the EdU incorporative assay.

[2] = tested on: oligodendroglial progenitor cells (OPCs); experiment: OPC proliferation (MTT assay); type: cell-based, rat; conditions: Rattus norvegicus, 48 h, read-out: OPC viability compared with the control group
Experimental: as §2, §1, §3, §4

cerebellar tissue slices = experiment: MPP+-induced cell death in cerebellar tissue slice culture (PI and NeuN staining); type: cell-based, rat; conditions: 30 μM, MPP+ 3 days
Experimental: Cerebellar tissue slice were treated with 30 μM BHDPC with or without MPP^+ for 72 h and then were stained with PI.
Following decapitation, brains of post-natal Day 9-10 SD rat were dissected out and sagittal slices (300 μm) of the cerebellum were immediately cut using a McIlwain tissue chopper, the slices were then isolated in Eagle's medium with Earle's salts medium (MEM) on ice and then placed on Millipore Millicell-CM™ organotypic culture inserts in pre-warmed medium containing MEM, Earle's balanced salt solution, heat-inactivated horse serum, GlutaMAX™, Fungizone®, and penicillin-streptomycin (each from Invitrogen), and glucose (Sigma). […]
After 3-4 days treatment of MPP^+ together with BHDPC, slices were fixed with 4% paraformaldehyde and then stained by immunohistochemistry. […] Three to four separate slice isolations (about 4-5 pups/isolation) were used, with 3-5 slices analysed from each isolation for each factor and dose.
Slices were fixed with 4% paraformaldehyde at room temperature for 1 hour, blocked with 5% donkey serum, 0.3% Triton™ X-100, and then incubated in primary antibodies for 2 days at 4° C. […] Confocal z-stacks were acquired (at 1.3 μm intervals and 10-15 images were acquired per stack) with a Leica SPE confocal microscope and images analysed using NIH ImageJ. […]

ROCK1 = ROCK1 (Homo sapiens, UniProt Q13464); experiment: Kinase activity assay ROCK1; type: biochemical
Sequence of ROCK1 (Q13464 whole entry, species assumed, canonical isoform): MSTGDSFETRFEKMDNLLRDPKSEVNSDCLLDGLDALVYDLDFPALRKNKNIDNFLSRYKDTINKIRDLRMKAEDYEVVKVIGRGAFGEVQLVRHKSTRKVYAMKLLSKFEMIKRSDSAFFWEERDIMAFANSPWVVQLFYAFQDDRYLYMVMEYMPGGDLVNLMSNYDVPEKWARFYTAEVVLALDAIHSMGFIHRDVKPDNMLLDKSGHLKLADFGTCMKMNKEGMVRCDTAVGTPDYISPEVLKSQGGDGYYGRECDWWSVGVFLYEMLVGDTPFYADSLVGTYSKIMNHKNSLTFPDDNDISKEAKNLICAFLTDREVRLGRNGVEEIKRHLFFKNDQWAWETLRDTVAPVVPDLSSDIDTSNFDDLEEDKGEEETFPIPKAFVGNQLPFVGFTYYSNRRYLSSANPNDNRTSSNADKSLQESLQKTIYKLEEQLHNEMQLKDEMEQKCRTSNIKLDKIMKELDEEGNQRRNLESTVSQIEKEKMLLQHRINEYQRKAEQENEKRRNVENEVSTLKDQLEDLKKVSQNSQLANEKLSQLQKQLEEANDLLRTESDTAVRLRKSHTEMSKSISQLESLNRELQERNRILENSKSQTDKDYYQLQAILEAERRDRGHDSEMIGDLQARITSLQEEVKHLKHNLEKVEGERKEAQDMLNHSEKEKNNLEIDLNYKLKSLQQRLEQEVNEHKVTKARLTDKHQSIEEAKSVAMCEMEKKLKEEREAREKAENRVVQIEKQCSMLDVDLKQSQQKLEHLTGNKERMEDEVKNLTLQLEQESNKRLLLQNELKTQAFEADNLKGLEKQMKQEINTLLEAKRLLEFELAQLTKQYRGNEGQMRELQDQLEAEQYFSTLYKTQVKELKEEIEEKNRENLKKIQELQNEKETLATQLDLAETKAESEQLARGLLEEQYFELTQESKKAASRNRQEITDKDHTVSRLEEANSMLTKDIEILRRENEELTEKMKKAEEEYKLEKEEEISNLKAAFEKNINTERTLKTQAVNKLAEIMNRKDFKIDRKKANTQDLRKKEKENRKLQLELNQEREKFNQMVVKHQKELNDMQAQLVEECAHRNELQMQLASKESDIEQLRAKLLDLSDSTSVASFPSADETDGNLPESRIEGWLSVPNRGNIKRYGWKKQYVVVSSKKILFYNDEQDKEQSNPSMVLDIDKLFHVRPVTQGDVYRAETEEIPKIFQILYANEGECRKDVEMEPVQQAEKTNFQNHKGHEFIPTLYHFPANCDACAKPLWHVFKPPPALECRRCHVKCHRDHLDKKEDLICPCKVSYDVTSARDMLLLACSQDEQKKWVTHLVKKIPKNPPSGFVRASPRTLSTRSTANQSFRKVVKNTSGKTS
Description: ROCK has two isoforms (ROCK1 and ROCK2) sharing the same downstream proteins. Bioassay and molecular docking are used to compare the characteristics of BHDPC on ROCK. […] Through molecular docking and molecular dynamics simulation, the interaction between the inhibitor and ROCK1 was shown in FIG. 17.

Which “MPP+-induced neuronal death (cell viability, MTT)” value (SH-SY5Y cells) does the source give for `COc1cc(C2C(C(=O)OCc3ccccc3)=C(C)Nc3nnnn32)ccc1O` (stereo not shown) [BHDPC, benzyl 7-(4-hydroxy-3-methoxyphenyl)-5-methyl-4,7-dihydrotetrazolo[1,5-a]pyrimidine-6-carboxylate] here?
The value was “prevented MPP^+-induced dopaminergic neuronal death”.

What about the viability at 48 h, 100 µM [1] of the same compound?
The viability at 48 h, 100 µM was 65%.

What about the viability at 1 µM ([2]; 1 μM) of the same compound?
The viability at 1 µM was 100%.

What about the viability at 3 µM ([2]; 3 μM) of the same compound?
Its viability at 3 µM is 106%.

And the viability at 10 µM ([2]; 10 μM)?
The viability at 10 µM was 127%.

What about the viability at 30 µM ([2]; 30 μM) of the same compound?
Its viability at 30 µM is 152%.

What about the “MPP+-induced CNS cells death and neurons death in brain slices” value (cerebellar tissue slices) of the same compound?
Its value is “prevented MPP^+-induced neuronal death”.

And the “MPP+-induced CNS cells death and neurons death in brain slices” value (cerebellar tissue slices; listed as BHDPCs)?
Its value is “attenuated”.

And the “affinity ROCK1 versus ROCK2” value (ROCK1; from IC50 values)?
The value was “better affinity for ROCK1 than ROCK2”.

What about the IC50 (ROCK1; kinase activity assay) of the same compound?
Its IC50 is 13.7 µM.
